{"source": "a melting point compilation (Tetko et al.; mined from patent text by program, amines drawn as free bases though some values may be those of a salt)", "data": [{"units": {"melting point": "°C"}, "values": [{"smiles": "COc1c2c(c(OC)c(OC)c1OC)CC(CCCOc1ccc(C(=O)O)cc1)C2", "melting point": "160 to 161"}, {"smiles": "O=[N+]([O-])c1oc2cc3c(cc2c1-c1ccccc1)OCO3", "melting point": "180 to 183"}, {"smiles": "O=C(NC(=S)Nc1ccc(Cl)c(Cl)c1)c1c(Cl)cccc1Cl", "melting point": 240}, {"smiles": "COCC1OC(n2cnc3c(N)nc(F)nc32)C(O)C1O", "note": "(stereo not given)", "melting point": "231 to 233"}, {"smiles": "CCOC(=O)C(NC(C)=O)(C(=O)OCC)C1=Nc2ccc(Br)cc2C(c2ccccn2)=NC1", "melting point": "178 to 180"}, {"smiles": "CCCCN1C(=O)CC(c2cc(C(C)(C)C)c(O)c(C(C)(C)C)c2)C1=O", "note": "(stereo not given)", "melting point": "109 to 112"}, {"smiles": "CCc1cccc(CC(=O)O)c1OCCn1cc(CCOc2ncc(C(F)(F)F)cc2Cl)c(OC(C)C)n1", "melting point": "76.5 to 77.5"}, {"smiles": "Cc1nnc(-c2ccc3occ(C(=O)O)c3c2)o1", "melting point": "252 to 253"}, {"smiles": "CC(=O)OC1CSC(Oc2ccc3nc(C)sc3c2)C(OC(C)=O)C1OC(C)=O", "note": "(stereo not given)", "melting point": 160}, {"smiles": "Cc1ccc(F)cc1C(=O)Nc1ccc(C(=O)O)cc1", "melting point": "272 to 275"}, {"smiles": "COc1cccc(-c2c(NC(=O)Nc3c(C(C)C)cccc3C(C)C)c(=O)n(C)c3ncccc23)c1", "melting point": "169 to 170"}, {"smiles": "CCc1nccn1CCc1ccc(Nc2ncc(C#N)c(-c3ccc(C(C)(C)N)cc3)n2)cc1", "melting point": 138}, {"smiles": "O=C(O)c1cccc(C=CC(=O)N2CCc3c([nH]c4ccccc34)C2c2ccc3c(c2)OCO3)c1", "note": "(stereo not given)", "melting point": "156 to 158"}, {"smiles": "COC(=O)C(Cc1ccccc1)NC(=O)C(N)(CC(=O)O)NC(=O)C(C)C", "note": "(stereo not given)", "melting point": "168 to 170"}, {"smiles": "CC(C)(C(=O)Nc1cc(Cl)cc(Cl)c1)N1COC(C#N)=C(c2ccccc2)C1=O", "melting point": "132 to 135"}, {"smiles": "Cc1nc(-c2ccc(-c3ccccc3S(=O)(=O)Nc3onc(C)c3C)cc2)oc1C", "melting point": "96 to 102"}, {"smiles": "Cc1nc(COc2cc(-n3c(=O)cc(C(F)(F)F)n(C)c3=O)c(F)cc2Cl)cs1", "melting point": "145 to 147"}, {"smiles": "CCCCCCCCCCCCN1C(=O)C=CC1=O", "melting point": 56}, {"smiles": "COc1cccc(-n2c(-c3sc(NC(=O)c4ccccc4)nc3-c3ccccc3)nc3ccccc3c2=O)c1", "melting point": "195 to 196"}, {"smiles": "O=C(OC1CCCCC1)c1cncn1C(c1ccccc1)c1ccccn1", "note": "(stereo not given)", "melting point": 161}, {"smiles": "CC(C)CCOC1CCC(=O)N1", "note": "(stereo not given)", "melting point": "73 to 75"}, {"smiles": "c1ccc2c(c1)nc(Nc1ccc3cc[nH]c3c1)c1nc(C3CCCC3)[nH]c12", "melting point": "260 to 261"}, {"smiles": "CCC(CC)c1[nH]c(C)c(C(C)=O)c1C", "melting point": "186 to 189"}, {"smiles": "Cc1ccc(C(=O)c2cccc3c2CCC3C(N)=O)cc1", "note": "(stereo not given)", "melting point": "188 to 191"}, {"smiles": "O=C1CC2CCc3ccccc3C2=NN1c1ccccc1O", "note": "(stereo not given)", "melting point": "221 to 222"}, {"smiles": "CC12CCC3c4ccc(C(=O)O)cc4CCC3C1CCC2C(=O)CC1CCCCC1", "note": "(stereo not given)", "melting point": "239 to 241"}, {"smiles": "COC(=O)C(NS(=O)(=O)c1ccc(-c2ccc(NC(=O)c3oc4cccc(C(C)=O)c4c3C)cc2)cc1)C(C)C", "note": "(stereo not given)", "melting point": "197 to 199"}, {"smiles": "c1ccc(COC2CCN(Cc3c[nH]c4ccccc34)CC2)cc1", "melting point": "143 to 145"}, {"smiles": "CCOc1c(C(=O)O)cnc2c1cnn2CC", "melting point": "198 to 199"}, {"smiles": "N#Cc1ncccc1-c1ccc2c(c1)C1(CCCCC1)C(=O)N2", "melting point": "232 to 234"}, {"smiles": "COc1ccc(C(=O)Nc2ccc(C)c(C)c2)cc1NC(=S)Nc1cccc(C)c1", "melting point": "155 to 160"}, {"smiles": "CN1CC=C(C2c3ccccc3CCc3ccccc32)CC1", "melting point": "96 to 98"}, {"smiles": "CN1CCN(c2cc(Cl)cc3c2c(=O)n(CCCc2ccccc2)c(=O)n3Cc2ccccc2)CC1", "melting point": "55 to 63"}, {"smiles": "CCCCN1C(=O)c2ccc(O)cc2C1=O", "melting point": "126 to 127"}, {"smiles": "Cc1cc(C2=NOC(c3cc(Cl)cc(Cl)c3)(C(F)(F)F)C2)ccc1C(=O)N(C)C1CCCS1", "note": "(stereo not given)", "melting point": "146 to 151"}, {"smiles": "O=C(O)CSCCCCCCNS(=O)(=O)c1ccc(Cl)cc1", "melting point": "104 to 105"}, {"smiles": "COC(=O)c1cccc(C(=O)N(C)C)n1", "melting point": "90 to 92"}, {"smiles": "CS(=O)(=O)c1ccc(-c2nc(C(F)(F)F)nc(NN)c2-c2ccc(F)cc2)cc1", "melting point": "286 to 290"}, {"smiles": "COC(=O)N1C2=C(C(=O)CC(C)(C)C2)C(c2ccc([N+](=O)[O-])cc2)C2=C1CC(C)(C)CC2=O", "melting point": "189 to 190"}, {"smiles": "Clc1cc(Cl)c2c(c1)COCO2", "melting point": "111 to 112"}, {"smiles": "CCCCNc1c(C(=O)OCC)c(C)nc2nccnc12", "melting point": "56 to 58"}, {"smiles": "Fc1cc(Cl)c2ccc(Cl)cc2n1", "melting point": "105 to 106"}, {"smiles": "CC(C)(C)c1cc(-c2n[nH]c(=O)o2)cc(C(C)(C)C)c1O", "melting point": 246}, {"smiles": "O=C(Nc1ccc2cn[nH]c2c1)C(=O)N1CCC(Cc2ccc(F)cc2)CC1", "melting point": "162 to 164"}, {"smiles": "CCCCc1nn(-c2ccc(C(F)(F)F)cn2)cc1CCCOc1c(CC(=O)O)cccc1OC", "melting point": "121 to 122"}, {"smiles": "CC(=O)Oc1ccc(-c2cnc(N(S(=O)(=O)Cc3ccccc3)S(=O)(=O)Cc3ccccc3)c(Cc3ccccc3)n2)cc1", "melting point": "84 to 86.5"}, {"smiles": "FC(F)(F)c1ccc(Oc2cc(Cl)nc(Cl)c2)c(Cl)c1", "melting point": 66}, {"smiles": "NS(=O)(=O)c1cc(C(=O)O)cc([N+](=O)[O-])c1Oc1ccccc1", "melting point": "255 to 256"}, {"smiles": "CCCc1nn(C)c2c1N=C(c1cc(/C=C/C(=O)N(C)C)ccc1OCC)NC2", "melting point": "219 to 221"}, {"smiles": "O=c1ccc(C(F)(F)F)cn1-c1ccc(NCCCN2CCCCC2)cc1Cl", "melting point": "112 to 115"}]}]}
